PubChem BioAssay AID1963446 (Molecular Pharmacology Branch, DTP, NCI, 2024)

Tested on: 993429-296-R-J1-PDC complex spheroid growth, percent test/control
Experiment: Anticancer human tumor 993429-296-R-J1-PDC patient-derived uterine sarcoma cell line growth inhibition [Asc]
Conditions: for IC50: curve of first compound; for viability, T/C: stronger effect = lower value
How it was run: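 Stromal components (HUVEC and hMSC) are co-assembled with the cancer cells into multicellular spheroids. Drugs are then added singly or paired, at concentrations falling by half-log increments from a clinically achievable maximum, capped at 10 microM without known Cmax.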

[1] = second compound 0.1 µM, first compound 0.0316 µM
[2] = second compound 0.1 µM, first compound 0.1 µM
[3] = second compound 0.1 µM, first compound 0.316 µM
[4] = second compound 0.1 µM, first compound 1 µM
[5] = second compound 0.316 µM, first compound 0.0316 µM
[6] = second compound 0.316 µM, first compound 0.1 µM
[7] = second compound 0.316 µM, first compound 0.316 µM
[8] = second compound 0.316 µM, first compound 1 µM
[9] = second compound 1 µM, first compound 0.0316 µM
[10] = second compound 1 µM, first compound 0.1 µM
[11] = second compound 1 µM, first compound 0.316 µM
[12] = second compound 1 µM, first compound 1 µM
[13] = second compound 3.16 µM, first compound 0.0316 µM
[14] = second compound 3.16 µM, first compound 0.1 µM
[15] = second compound 3.16 µM, first compound 0.316 µM
[16] = second compound 3.16 µM, first compound 1 µM
[17] = second compound 10 µM, first compound 0.0316 µM
[18] = second compound 10 µM, first compound 0.1 µM
[19] = second compound 10 µM, first compound 0.316 µM
[20] = second compound 10 µM, first compound 1 µM
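Also: spheroids exposed to compounds for seven days.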

Structure (SMILES) | IC50 (second compound 0.1 µM) | IC50 (second compound 0.316 µM) | IC50 (second compound 1 µM) | IC50 (second compound 3.16 µM) | IC50 (second compound 10 µM) | viability, T/C [1] | viability, T/C [2] | viability, T/C [3] | viability, T/C [4] | viability, T/C [5] | viability, T/C [6] | viability, T/C [7] | viability, T/C [8] | viability, T/C [9] | viability, T/C [10] | viability, T/C [11] | viability, T/C [12] | viability, T/C [13] | viability, T/C [14] | viability, T/C [15] | other results
O=C(c1ccc(F)c(F)c1Nc1ccc(I)cc1F)N1CC(O)([C@@H]2CCCCN2)C1 + Cc1c(S(C)(=O)=O)c(-c2cc(F)cc(N3CCN(c4ccc(NS(=O)(=O)c5ccc(NC(CCN6CCC(C(=O)OCCCP(=O)(O)O)CC6)CSc6ccccc6)c(S(=O)(=O)C(F)(F)F)c5)cc4)CC3)c2)c(-c2ccc(Cl)cc2)n1C(C)C | 7.5 nM | 9.6 nM | 4.44 nM | < 3.16 nM | 15.8 nM | 31.9% | 10.2% | 1.93% | 0.33% | 29.1% | 15.3% | 1.67% | 0.23% | 19.3% | 5.07% | 0.22% | 0.14% | 21.1% | 2.83% | 0.52% | viability, T/C (second compound 0.1 µM, first compound 0.00316 µM): 63%; viability, T/C (second compound 0.1 µM, first compound 0.01 µM): 42.8%; viability, T/C (second compound 0.316 µM, first compound 0.00316 µM): 55.9%; viability, T/C (second compound 0.316 µM, first compound 0.01 µM): 52.7%; viability, T/C (second compound 1 µM, first compound 0.00316 µM): 57.6%; viability, T/C (second compound 1 µM, first compound 0.01 µM): 30.8%; viability, T/C (second compound 3.16 µM, first compound 0.00316 µM): 39.2%; viability, T/C (second compound 3.16 µM, first compound 0.01 µM): 30.8%; viability, T/C [16]: 0.18%; viability, T/C (second compound 10 µM, first compound 0.00316 µM): 72%; viability, T/C (second compound 10 µM, first compound 0.01 µM): 68.7%; viability, T/C [17]: 21.6%; viability, T/C [18]: 3.49%; viability, T/C [19]: 0.84%; viability, T/C [20]: 0.16%
C#Cc1c(F)ccc2cc(O)cc(-c3ncc4c(N5CC6CCC(C5)N6)nc(OCC56CCCN5CC(F)C6)nc4c3F)c12 (stereo not given) + Cc1c(S(C)(=O)=O)c(-c2cc(F)cc(N3CCN(c4ccc(NS(=O)(=O)c5ccc(NC(CCN6CCC(C(=O)OCCCP(=O)(O)O)CC6)CSc6ccccc6)c(S(=O)(=O)C(F)(F)F)c5)cc4)CC3)c2)c(-c2ccc(Cl)cc2)n1C(C)C | 2930 nM | 1410 nM | 1450 nM | < 31.6 nM | 2750 nM | 70.7% | 69.9% | 64.8% | 67.3% | 55.4% | 73.8% | 66.5% | 53.1% | 60.1% | 55.9% | 50.7% | 67.3% | 53.6% | 45.6% | 45.6% | viability, T/C (second compound 0.1 µM, first compound 3.16 µM): 48.8%; viability, T/C (second compound 0.1 µM, first compound 10 µM): 2.44%; viability, T/C (second compound 0.316 µM, first compound 3.16 µM): 36%; viability, T/C (second compound 0.316 µM, first compound 10 µM): 1.38%; viability, T/C (second compound 1 µM, first compound 3.16 µM): 32%; viability, T/C (second compound 1 µM, first compound 10 µM): 0.37%; viability, T/C [16]: 36%; viability, T/C (second compound 3.16 µM, first compound 3.16 µM): 33%; viability, T/C (second compound 3.16 µM, first compound 10 µM): 0.32%; viability, T/C [17]: 94.9%; viability, T/C [18]: 98.8%; viability, T/C [19]: 88.1%; viability, T/C [20]: 74.5%; viability, T/C (second compound 10 µM, first compound 3.16 µM): 46.9%; viability, T/C (second compound 10 µM, first compound 10 µM): 2.69%
